Test [1] in a line: Antisense effect in human 607B cells assessed as down-regulation of bcl2 expression at 100 nM after 48 hrs by Western blot analysis relative to control. It counts as functional.
Test [2] concerns Nucleic Acid. Nature of the test: Duplex stability of RNA counter strand assessed as melting temperature. It counts as nucleic-acid assay.
In test [3] the test system is Nucleic Acid. Briefly: Duplex stability of DNA counter strand assessed as melting temperature. It counts as nucleic-acid assay.

SMILES strings stand for the structures.

Regarding `Cc1cn([C@H]2C[C@H](OP(O)(=S)OC[C@H]3O[C@@H](n4ccc(N)nc4=O)[C@H](O)[C@@H]3OP(O)(=S)OC[C@H]3O[C@@H](n4cc(C)c(=O)[nH]c4=O)C[C@@H]3O)[C@@H](COP(O)(=S)O[C@H]3[C@@H](O)[C@H](n4ccc(N)nc4=O)O[C@@H]3COP(O)(=S)O[C@H]3[C@@H](O)[C@H](n4ccc(N)nc4=O)O[C@@H]3COP(O)(=S)O[C@H]3[C@@H](O)[C@H](n4ccc(N)nc4=O)O[C@@H]3COP(O)(=S)O[C@H]3[C@@H](O)[C@H](n4cnc5c(N)ncnc54)O[C@@H]3COP(O)(=S)O[C@H]3[C@@H](O)[C@H](n4cnc5c(=O)[nH]c(N)nc54)O[C@@H]3COP(O)(=S)O[C@H]3[C@@H](O)[C@H](n4ccc(N)nc4=O)O[C@@H]3COP(O)(=S)O[C@H]3[C@@H](O)[C@H](n4cnc5c(=O)[nH]c(N)nc54)O[C@@H]3COP(O)(=S)O[C@H]3C[C@H](n4cc(C)c(=O)[nH]c4=O)O[C@@H]3COP(O)(=S)O[C@H]3[C@@H](O)[C@H](n4cnc5c(=O)[nH]c(N)nc54)O[C@@H]3COP(O)(=S)O[C@H]3[C@@H](O)[C@H](n4ccc(N)nc4=O)O[C@@H]3COP(O)(=S)O[C@H]3[C@@H](O)[C@H](n4cnc5c(=O)[nH]c(N)nc54)O[C@@H]3COP(O)(=S)O[C@H]3[C@@H](O)[C@H](n4ccc(N)nc4=O)O[C@@H]3COP(O)(=S)O[C@H]3[C@@H](O)[C@H](n4ccc(N)nc4=O)O[C@@H]3COP(O)(=S)O[C@H]3[C@@H](O)[C@H](n4cnc5c(N)ncnc54)O[C@@H]3COP(O)(=S)O[C@H]3[C@@H](NCCCCN)[C@H](n4ccc(=O)[nH]c4=O)O[C@@H]3CO)O2)c(=O)[nH]c1=O` (some centres undefined), in test [1], the Activity turned out to be 70.6%. The Tm in the test on Nucleic Acid [2] stood at 50.1 °C; with Nucleic Acid [3], 67.6 °C.

Turning to `Cc1cn([C@@H]2O[C@H](COP(=O)(O)O[C@H]3[C@@H](O)[C@H](n4ccc(N)nc4=O)O[C@@H]3COP(=O)(O)O[C@H]3[C@@H](O)[C@H](n4ccc(N)nc4=O)O[C@@H]3COP(=O)(O)O[C@H]3[C@@H](O)[C@H](n4ccc(N)nc4=O)O[C@@H]3COP(=O)(O)O[C@H]3[C@@H](O)[C@H](n4cnc5c(N)ncnc54)O[C@@H]3COP(=O)(O)O[C@H]3[C@@H](O)[C@H](n4cnc5c(=O)[nH]c(N)nc54)O[C@@H]3COP(=O)(O)O[C@H]3[C@@H](O)[C@H](n4ccc(N)nc4=O)O[C@@H]3COP(=O)(O)O[C@H]3[C@@H](O)[C@H](n4cnc5c(=O)[nH]c(N)nc54)O[C@@H]3COP(=O)(O)O[C@H]3[C@@H](NCCCNCCCCNCCCN)[C@H](n4ccc(=O)[nH]c4=O)O[C@@H]3COP(=O)(O)O[C@H]3[C@@H](O)[C@H](n4cnc5c(=O)[nH]c(N)nc54)O[C@@H]3COP(=O)(O)O[C@H]3[C@@H](O)[C@H](n4ccc(N)nc4=O)O[C@@H]3COP(=O)(O)O[C@H]3[C@@H](O)[C@H](n4cnc5c(=O)[nH]c(N)nc54)O[C@@H]3COP(=O)(O)O[C@H]3[C@@H](O)[C@H](n4ccc(N)nc4=O)O[C@@H]3COP(=O)(O)O[C@H]3[C@@H](O)[C@H](n4ccc(N)nc4=O)O[C@@H]3COP(=O)(O)O[C@H]3[C@@H](O)[C@H](n4cnc5c(N)ncnc54)O[C@@H]3COP(=O)(O)O[C@H]3C[C@H](n4cc(C)c(=O)[nH]c4=O)O[C@@H]3CO)[C@@H](OP(=O)(O)OC[C@H]3O[C@@H](n4ccc(N)nc4=O)[C@H](O)[C@@H]3OP(=O)(O)OC[C@H]3O[C@@H](n4ccc(=O)[nH]c4=O)[C@H](NCCCNCCCCNCCCN)[C@@H]3O)[C@H]2NCCCNCCCCNCCCN)c(=O)[nH]c1=O`, the Tm in the test with Nucleic Acid [2] was 45.8 °C; in the test with Nucleic Acid [3] it was 70.6 °C.

On to `Cc1cn([C@H]2C[C@H](OP(=O)(O)OC[C@H]3O[C@@H](n4cnc5c(N)ncnc54)[C@H](O)[C@@H]3OP(=O)(O)OC[C@H]3O[C@@H](n4ccc(N)nc4=O)[C@H](O)[C@@H]3OP(=O)(O)OC[C@H]3O[C@@H](n4ccc(N)nc4=O)[C@H](O)[C@@H]3OP(=O)(O)OC[C@H]3O[C@@H](n4cnc5c(=O)[nH]c(N)nc54)[C@H](O)[C@@H]3OP(=O)(O)OC[C@H]3O[C@@H](n4ccc(N)nc4=O)[C@H](O)[C@@H]3OP(=O)(O)OC[C@H]3O[C@@H](n4cnc5c(=O)[nH]c(N)nc54)[C@H](O)[C@@H]3OP(=O)(O)OC[C@H]3O[C@@H](n4ccc(=O)[nH]c4=O)[C@H](NCCCNCCCCNCCCN)[C@@H]3OP(=O)(O)OC[C@H]3O[C@@H](n4cnc5c(=O)[nH]c(N)nc54)[C@H](O)[C@@H]3OP(=O)(O)OC[C@H]3O[C@@H](n4ccc(N)nc4=O)[C@H](O)[C@@H]3OP(=O)(O)OC[C@H]3O[C@@H](n4cnc5c(=O)[nH]c(N)nc54)[C@H](O)[C@@H]3OP(=O)(O)OC[C@H]3O[C@@H](n4cnc5c(N)ncnc54)[C@H](O)[C@@H]3OP(=O)(O)OC[C@H]3O[C@@H](n4ccc(N)nc4=O)[C@H](O)[C@@H]3OP(=O)(O)OC[C@H]3O[C@@H](n4ccc(N)nc4=O)[C@H](O)[C@@H]3OP(=O)(O)OC[C@H]3O[C@@H](n4ccc(N)nc4=O)[C@H](O)[C@@H]3OP(=O)(O)OC[C@H]3O[C@@H](n4cc(C)c(=O)[nH]c4=O)C[C@@H]3OP(=O)(O)OC[C@H]3O[C@@H](n4ccc(N)nc4=O)[C@H](O)[C@@H]3OP(=O)(O)OC[C@H]3O[C@@H](n4ccc(=O)[nH]c4=O)[C@H](NCCCNCCCCNCCCN)[C@@H]3O)[C@@H](CO)O2)c(=O)[nH]c1=O`, for which the results for the Tm in the test with Nucleic Acid [2] and in the test with Nucleic Acid [3] were 57.8 °C and 74.5 °C, respectively.

Turning to `Cc1cn([C@H]2C[C@H](OP(=O)(O)OC[C@H]3O[C@@H](n4cnc5c(N)ncnc54)[C@H](O)[C@@H]3OP(=O)(O)OC[C@H]3O[C@@H](n4ccc(N)nc4=O)[C@H](O)[C@@H]3OP(=O)(O)OC[C@H]3O[C@@H](n4ccc(N)nc4=O)[C@H](O)[C@@H]3OP(=O)(O)OC[C@H]3O[C@@H](n4cnc5c(=O)[nH]c(N)nc54)[C@H](O)[C@@H]3OP(=O)(O)OC[C@H]3O[C@@H](n4ccc(N)nc4=O)[C@H](O)[C@@H]3OP(=O)(O)OC[C@H]3O[C@@H](n4cnc5c(=O)[nH]c(N)nc54)[C@H](O)[C@@H]3OP(=O)(O)OC[C@H]3O[C@@H](n4cc(C)c(=O)[nH]c4=O)C[C@@H]3OP(=O)(O)OC[C@H]3O[C@@H](n4cnc5c(=O)[nH]c(N)nc54)[C@H](O)[C@@H]3OP(=O)(O)OC[C@H]3O[C@@H](n4ccc(N)nc4=O)[C@H](O)[C@@H]3OP(=O)(O)OC[C@H]3O[C@@H](n4cnc5c(=O)[nH]c(N)nc54)[C@H](O)[C@@H]3OP(=O)(O)OC[C@H]3O[C@@H](n4cnc5c(N)ncnc54)[C@H](O)[C@@H]3OP(=O)(O)OC[C@H]3O[C@@H](n4ccc(N)nc4=O)[C@H](O)[C@@H]3OP(=O)(O)OC[C@H]3O[C@@H](n4ccc(N)nc4=O)[C@H](O)[C@@H]3OP(=O)(O)OC[C@H]3O[C@@H](n4ccc(N)nc4=O)[C@H](O)[C@@H]3OP(=O)(O)OC[C@H]3O[C@@H](n4cc(C)c(=O)[nH]c4=O)C[C@@H]3OP(=O)(O)OC[C@H]3O[C@@H](n4ccc(N)nc4=O)[C@H](O)[C@@H]3OP(=O)(O)OC[C@H]3O[C@@H](n4cc(C)c(=O)[nH]c4=O)C[C@@H]3O)[C@@H](CO)O2)c(=O)[nH]c1=O`, the Tm with Nucleic Acid [2] came to 65.3 °C; in the test with Nucleic Acid [3], 79 °C.

Values taken from ChEMBL document CHEMBL1153884, “Oligonucleotide-polyamine conjugates: influence of length and position of 2'-attached polyamines on duplex stability and antisense effect” (2009).
